Assay results taken from patent US20090202540A1, “SUBSTITUTED OXAZAPHOSPHORINES” (Auspex Pharmaceuticals, Inc., priority 2008, published 2009).
Like-named read-outs stand apart in the source and are kept apart here.

Conditions: 1 mg per mL liver microsome protein, 1 μM compound, 37° C., compared to the non-isotopically enriched drug
Method: Liver microsomal stability assays were conducted at 1 mg per mL liver microsome protein with an NADPH-generating system in 2% NaHCO3 (2.2 mM NADPH, 25.6 mM glucose 6-phosphate, 6 units per mL glucose 6-phosphate dehydrogenase and 3.3 mM MgCl2). Test compounds were prepared as solutions in 20% acetonitrile-water and added to the assay mixture (final assay concentration 1 μM) and incubated at 37° C. Final concentration of acetonitrile in the assay should be <1%. Aliquots (50 μL) were taken out at times 0, 15, 30, 45, and 60 min, and diluted with ice cold acetonitrile (200 μL) to stop the reactions. Samples were centrifuged at 12,000 RPM for 10 min to precipitate proteins. Supernatants were transferred to micro centrifuge tubes and stored for LC/MS/MS analysis of the degradation half-life of the test compounds.

| SMILES | % increase of HLM degradation half-life (50%-150%) | also measured |
| --- | --- | --- |
| [2H]C1([2H])CCNP(=O)(N(CCCl)CCCl)O1 (stereo not shown) [Example 2, Bis-(2-chloro-ethyl)-(d2-2-oxo-2λ^5-[1,3,2]oxazaphosphinan-2yl)-amine] | + (50%-150%) | – |
| [2H]C1([2H])CCOP(=O)(N(C([2H])([2H])C([2H])([2H])Cl)C([2H])([2H])C([2H])([2H])Cl)N1 (stereo not shown) [Example 5, d8-Bis-(2-chloro-ethyl)-(2-oxo-2λ^5-[1,3,2]oxazaphosphinan-2yl)-d2-amine] | – | % increase of HLM degradation half-life (0%-50%): + (0%-50%) |
| [2H]C1([2H])CCNP(=O)(N(C([2H])([2H])C([2H])([2H])Cl)C([2H])([2H])C([2H])([2H])Cl)O1 (stereo not shown) [Example 3, d8-Bis-(2-chloro-ethyl)-(d2-2-oxo-2λ^5-[1,3,2]oxazaphosphinan-2yl)amine] | + (50%-150%) | – |
| [2H]C([2H])(Cl)C([2H])([2H])N(C([2H])([2H])C([2H])([2H])Cl)P1(=O)NCCCO1 (stereo not shown) [Example 1, d8-Bis-(2-chloro-ethyl)-(2-oxo-2λ^5-[1,3,2]oxazaphosphinan-2yl)-amine] | – | % increase of HLM degradation half-life (column −25%-0%): + (−25%-0%) |
